The values below come from paper PMC11213860, “Competitive protein recruitment in artificial cells” (Communications Chemistry, 2024).

One test has as its target T1, 14-3-3γ (Homo sapiens, UniProt P61981).
T1 construct: His-tagged full-length 14-3-3σ and 14-3-3γ were kindly provided by
T1 sequence (P61981 1-247): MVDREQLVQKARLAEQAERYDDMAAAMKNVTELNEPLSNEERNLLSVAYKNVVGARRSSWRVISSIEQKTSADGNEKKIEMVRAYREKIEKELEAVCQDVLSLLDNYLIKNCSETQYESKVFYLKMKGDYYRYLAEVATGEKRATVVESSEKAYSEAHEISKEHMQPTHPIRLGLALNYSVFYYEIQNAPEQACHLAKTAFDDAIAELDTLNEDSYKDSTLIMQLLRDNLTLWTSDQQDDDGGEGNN
As to the kind of experiment: Fluorescence anisotropy assay, titration of 14-3-3γ to labeled peptide. The test is classed as binding. Particulars: ratio of KD values from fluorescence anisotropy. For orientation: In fluorescence polarisation assays a small probe gives low polarisation when free and higher when bound to something large.

The next test concerns T14-3-3. As to the kind of experiment: Fluorescence anisotropy assay, titration of T14-3-3 to labeled peptides. The test is classed as binding. Particulars: Supplementary Table 1; unphosphorylated peptide, cf. Supplementary Fig. 7. As to the method:
14-3-3 was titrated in a 2-fold dilution series to 10 nM of fluorescently labeled peptide in coacervate buffer (20 mM HEPES, 100 mM KCl, pH 7.5) supplemented with 0.1% (v/v) of Tween 20 and 1 mg/mL of bovine serum albumin (BSA) to prevent aspecific hydrophobic interactions. Dilution series were prepared in low volume, non-binding polystyrene 384-well plates (Corning 4514 Black Round Bottom 384-well plates). Measurements were performed directly after plate preparation using a Tecan Spark plate reader at room temperature. The following settings were used: excitation 485 ± 20 nm; emission: 535 ± 25 nm; mirror: Dichroic 510; number of flashes: 30; integration time: 40 µs; settle time: 1 ms; gain: optimal; and Z-position: calculated from well. Wells containing only the labeled peptide were used to set as G-factor at 35 mAU. All data were analyzed using GraphPad Prism (version 10.0.3) and fitted using a four-parameter logistic model (4PL) to determine binding affinities (KD). All results are based on triplicates, with the mean and standard error determined by GraphPad.

The target in another test is BiExoS [change] peptide. Put plainly: fluorescence polarisation.

With `CC(C)C[C@H](NC(=O)[C@H](CO)NC(=O)CNC(=O)[C@H](CCC(=O)O)NC(=O)[C@H](CO)NC(=O)[C@H](CO)NC(=O)[C@@H]1CCCN1C(=O)[C@H](CO)NC(=O)[C@H](CO)NC(=O)[C@@H](NC(=O)[C@H](CC(N)=O)NC(=O)[C@H](Cc1ccccc1)NC(=O)[C@@H](NC(=O)[C@H](Cc1ccccc1)NC(=O)[C@H](C)NC(=O)[C@H](Cc1c[nH]cn1)NC(=O)[C@@H]1CCCN1C(=O)[C@@H](NC(=O)[C@H](COP(=O)(O)O)NC(=O)[C@H](Cc1ccc(O)cc1)NC(=O)[C@H](CCCNC(=N)N)NC(=O)[C@H](Cc1c[nH]cn1)NC(=O)[C@H](CCC(N)=O)NC(=O)CCCCCNC(=S)Nc1ccc2c(c1)C(=O)OC21c2ccc(O)cc2Oc2cc(O)ccc21)[C@@H](C)O)[C@@H](C)O)[C@@H](C)O)C(=O)N[C@@H](CO)C(=O)N[C@@H](CCC(N)=O)C(=O)N[C@@H](CCCNC(=N)N)C(=O)N[C@@H](CCC(N)=O)C(=O)N[C@@H](CCCNC(=N)N)C(=O)N[C@@H](CO)C(=O)N[C@H](C(=O)N[C@@H](COP(=O)(O)O)C(=O)N[C@H](C(=O)N1CCC[C@H]1C(=O)N[C@@H](CC(N)=O)C(=O)N[C@H](C(=O)N[C@@H](Cc1c[nH]cn1)C(N)=O)C(C)C)[C@@H](C)O)[C@@H](C)O` [FITC-c-Raf pS], the “difference in bulk affinity of the peptide for the two isoforms (14-3-3σ vs 14-3-3γ)” value on 14-3-3γ was 40 fold.
With “FITC-Ahx-QHRYSTPHAFTFNTSSPSSEGSLSQRQRSTSTPNVH-Ac [c-Raf S233/S259, unphosphorylated FITC-labeled c-Raf S233/S259 peptide]”, the “Binding mode to 14-3-3” value in the test on T14-3-3 is listed as “No binding”.
In turn, “His-tagged full-length 14-3-3γ (from UniProt P61981 1-247) (natural protein)” yielded a Kd with BiExoS [change] peptide of 0.059 µM.

B1: His-tagged full-length 14-3-3σ (natural protein)
chain: MERASLIQKAKLAEQAERYEDMAAFMKGAVEKGEELSCEERNLLSVAYKNVVGGQRAAWRVLSSIEQKSNEEGSEEKGPEVREYREKVETELQGVCDTVLGLLDSHLIKEAGDAESRVFYLKMKGDYYRYLAEVATGDDKKRIIDSARSAYQEAMDISKKEMPPTNPIRLGLALNFSVFHYEIANSPEEAISLAKTTFDEAMADLHTLSEDSYKDSTLIMQLLRDNLTLWTADNAGEEGGEAPQEPQS
modifications: in the coacervate experiments labelled with Cy5 or DyLight 405 (NHS ester, aspecific)
The molecule B1 yielded a Kd with BiExoS [change] peptide of 23 µM.

The Kd is a measure of binding affinity in units of concentration.
